One test relates to acute GVHD. Description: mouse MHC class I/II disparate acute GVHD model. Format: in vivo. The protocol:
(§1) Lethally irradiated BALB/c mice were given 10e6 C57BL/6 bone marrow only (BM), or BM with 2e6 CD4+25−/CD8+25− Tcon cells without (BM+T) or with 1e6 Tregs treated with either DMSO (DMSO) or 10 μM AEB071 (AEB071) for 30 minutes. […] Tregs were treated with DMSO or AEB071 as above, and activated overnight with plate bound anti-CD3/28 and IL-2. […] […] Tregs were treated with DMSO or AEB071 and activated as above. […] Tregs were transfected with vimentin siRNA (vim) or control (GFP), and activated for 36 hours. CFSE-labeled Tcon were mixed with T-cell depleted splenocytes and soluble anti-CD3 mAb. Treg:Tcon ratios of 1:1-1:27 were plated and CFSE dilution assessed after 3 days.
FIG. 9A is a graph showing the percent survival of recipients. Tregs were transfected with either control (non-targeting) or vimentin siRNA. Recipient mice were given BM alone, BM+Tcon (BM+T), or BM+Tcon+Tregs; Tregs pre-treated with control or vimentin siRNA. […] Bars show mean±SEM. Survival differences analyzed by log-rank test. *, p<0.05; **, P<0.01; ***, P<0.0001; ****, p<0.00001 (Student's t-tests or one-way ANOVA with Tukey's post-test).
FIG. 9B is a graph showing the clinical GVHD scores (0=no disease, 10=most severe disease) for recipients. Tregs were transfected with either control (non-targeting) or vimentin siRNA. Recipient mice were given BM alone, BM+Tcon (BM+T), or BM+Tcon+Tregs; Tregs pre-treated with control or vimentin siRNA. […] Bars show mean±SEM. Survival differences analyzed by log-rank test. *, p<0.05; **, P<0.01; ***, P<0.0001; ****, p<0.00001 (Student's t-tests or one-way ANOVA with Tukey's post-test).
As Tregs exert much of their protective effect against GVHD early in the course of the disease, proliferation of GVHD-causing conventional T-cells (Tcon) on D4 after transplant was analyzed. […] Multi-photon microscopy on D4 was performed after transplant using TEα-GFP Tcon, CD11c-eYFP antigen presenting cells (APCs) and wild-type Tregs. […]

A further test deals with Tcon-APC interactions. Description: multi-photon microscopy on D4 after transplant. The settings on record: AEB071-treated Tregs vs DMSO. In kind it is in vivo, mouse. As for the experimental part: As Tregs exert much of their protective effect against GVHD early in the course of the disease, proliferation of GVHD-causing conventional T-cells (Tcon) on D4 after transplant was analyzed. […] Multi-photon microscopy on D4 was performed after transplant using TEα-GFP Tcon, CD11c-eYFP antigen presenting cells (APCs) and wild-type Tregs.

In test [1] the test system is Tregs. The test can be described thus: flow cytometry of marker expression in activated Tregs. In kind it is cell-based, mouse. As for the experimental part:
as §1
Bars show mean±SEM. *, p<0.05; **, P<0.01; ***, P<0.0001; ****, p<0.00001 (Student's t-tests or one-way ANOVA with Tukey's post-test).
Ratios of 0:1, 1:1, 1:3, 1:9 and 1:27 Treg:Teff were made. Four replicates of each ratio were made and plated in a 96-well, round bottom plate. After 3 days in culture, the cells from each well were harvested, washed with PBS and then stained with antibodies for flow cytometry analysis of CFSE dilution (proliferation) of CD4 and CD8 Tcon. The antibodies used were as follows: CD4-BV510, CD8-PE-ef610, CD25-BV605, Nrp1-PerCP-ef710, Lag3-APC, Fixable viability dye-APC-ef780, Foxp3-PE-Cy7, and Vimentin-PE.
Background: A flow cytometer gives signals particle by particle.

For another test, the system named is splenic Tregs. The test can be described thus: flow cytometry of Tregs from acute GVHD recipients. Format: in vivo, mouse. The settings on record: AEB071 vs DMSO treated Tregs isolated from acute GVHD mice.
The test system of test [2] is phosphorylated proteins in activated Tregs. Description: flow cytometry analysis of phosphorylated proteins (phosphoflow) in Tregs. In kind it is cell-based, mouse. As for the experimental part:
In addition, the mTORC2-specific phosphorylation site on Akt, serine 473, was reduced, whereas the […] phosphorylation site, threonine 308, was unaltered. […] As both mTORC1 and mTORC2 are involved in T-cell metabolism, the effect of AEB071 treatment on Treg oxygen consumption rate (OCR) was investigated. […] Increased OCR has been associated with increased Treg function. […]
Since PKC-θ inhibition modulated Treg metabolism and mTORC2 function, experiments were performed to determine whether vimentin siRNA might have a similar effect. […] Since mTORC2 signaling was reduced after PKC-θ inhibition, it was hypothesized that mTORC2 activity also could be reduced after treatment with vimentin siRNA.

Test [3] has as its system Tregs. Description: Treg metabolic activity (OCR, ECAR, BoDipyC1-C12 uptake). Format: cell-based, mouse. The settings on record: AEB071 vs DMSO, after activation. As for the experimental part:
as §1
FIG. 9C is a graph showing basal and maximal oxygen consumption rate (OCR) and extracellular acidification rate (ECAR) measured after transfection. Tregs were transfected with either control (non-targeting) or vimentin siRNA. […] Bars show mean±SEM. Survival differences analyzed by log-rank test. *, p<0.05; **, P<0.01; ***, P<0.0001; ****, p<0.00001 (Student's t-tests or one-way ANOVA with Tukey's post-test).

Another test deals with Tcon. Description: in vitro Treg suppression, Tcon type not specified. In kind it is cell-based, mouse. The protocol:
as §1
On day 3 after transfection, CD4/8 Tcon and T-cell depleted splenoctyes were isolated for a suppression assay. CD4/CD8 Tcon were purified from spleen of CD45.1 C57BL/6 mice using negative selection with eBioscience biotinylated Ab (anti-CD19, B220, NK1.1, gamma-delta TCR) and StemCell technologies streptavidin RapidSphere technology. Once isolated, Tcon were labeled with CFSE (2.5 μM) for 5 minutes at room temperature with constant agitation.
Responder Tcon were provided with 0.75 μg/mL soluble anti-CD3 mAb. […]

In test [4] the test system is in vitro-expanded human Tregs. Description: phosphoproteomic screen with human Treg cells. Format: cell-based. The protocol:
Utilizing mass spectroscopy, a total of 12,452 phosphorylation sites were quantified from human Tregs. In order to determine significant differences between DMSO-treated and AEB071-treated Tregs, two experiments were performed concurrently: • Forward experiment: This experiment utilized heavy isotope-labeled Tregs treated with AEB071 and medium isotope-labeled Tregs treated with DMSO. • Reverse experiment: medium isotope-labeled Tregs treated with AEB071 and heavy isotope-labeled Tregs treated with DMSO.
After processing the raw spectra with Max Quant software, the positively identified phosphopeptides were analyzed using Persus software. Contaminating peptides and reverse database hits were filtered out and the peptide intensity values and normalized H/M ratios were log 2 transformed. The significances of the individual H/M ratios calculated using the Significance B test with a false discovery rate of 0.05 for the forward and reverse experiment separately.
Relying only on the Sig B test, the overlap between the two data sets was low with only 15% overlap. In order to improve the overlap between the two data sets, the data was filtered based on fold change (<1.5), consistency of ratios, phospho site localization probability (<75%), and the MaxQuant score (<75). By filtering the results, the overlap improved to 60%.

Another test has as its target T1, PKC-θ/vimentin (Mus musculus, UniProt Q02111).
T1 construct: endogenous in cells
Description: confocal microscopy of PKC-θ and vimentin staining in activated Tregs. In kind it is cell-based. As for the experimental part:
FIG. 8A are photographs of the results of experiments in which Tregs were pre-treated with DMSO (control), AEB071, or vimentin siRNA, then activated. PKC-θ and vimentin staining were analyzed by confocal microscopy.
Since PKC-θ localization and function appear to be linked, experiments were performed to understand whether PKC-θ inhibition modulated PKC-θ localization. Consistent with previous work, PKC-θ accumulated at the distal pole of control Tregs after 5 minutes of anti-CD3/CD28 mAb activation (FIG. 8A, top).

[5] abbreviates: 10 μM AEB071 30 minutes vs DMSO, activated overnight with anti-CD3/28 and IL-2.
Setting [6] is: PKC-θ inhibition (AEB071), activated Tregs.

Entries after “also recorded” stand apart in the source; their conditions may differ.

T1 sequence (Q02111 whole entry): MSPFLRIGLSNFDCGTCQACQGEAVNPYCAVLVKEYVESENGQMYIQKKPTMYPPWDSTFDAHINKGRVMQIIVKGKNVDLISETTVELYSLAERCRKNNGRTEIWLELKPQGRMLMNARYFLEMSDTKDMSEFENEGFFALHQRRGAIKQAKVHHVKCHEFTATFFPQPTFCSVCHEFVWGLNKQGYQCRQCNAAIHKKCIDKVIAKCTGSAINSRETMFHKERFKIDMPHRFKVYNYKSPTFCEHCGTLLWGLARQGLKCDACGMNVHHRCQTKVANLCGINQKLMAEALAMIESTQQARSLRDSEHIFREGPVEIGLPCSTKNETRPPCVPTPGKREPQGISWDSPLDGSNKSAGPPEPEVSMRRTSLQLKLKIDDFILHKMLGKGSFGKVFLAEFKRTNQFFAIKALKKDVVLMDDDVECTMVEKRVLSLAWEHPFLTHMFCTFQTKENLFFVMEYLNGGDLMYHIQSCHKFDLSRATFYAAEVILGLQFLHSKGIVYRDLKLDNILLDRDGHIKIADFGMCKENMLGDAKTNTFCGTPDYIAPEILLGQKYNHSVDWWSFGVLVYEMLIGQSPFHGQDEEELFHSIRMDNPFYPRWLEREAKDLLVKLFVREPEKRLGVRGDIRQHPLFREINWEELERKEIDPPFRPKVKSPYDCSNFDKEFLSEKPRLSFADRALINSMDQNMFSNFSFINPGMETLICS

Turning to `CN1CCN(c2nc(C3=C(c4c[nH]c5ccccc45)C(=O)NC3=O)c3ccccc3n2)CC1` [AEB071], the GVHD severity entry with acute GVHD (Tregs treated 30 minutes with 10 μM AEB071 vs DMSO-treated Tregs) is on record as “significantly better”. Further, the “recipient survival / GVHD mortality” value with acute GVHD (Tregs treated 30 minutes with 10 μM AEB071 vs DMSO-treated Tregs, p=0.0036) is “significantly increased recipient survival; also recorded: significantly better”. Further, in the test with acute GVHD (mice given AEB071 treated Tregs vs DMSO treated Tregs), the “Tcon proliferation on D4 after transplant” value was “significant reduction”. Besides, in the test with Tcon-APC interactions, the “Tcon displacement from APCs” value is given as “significantly increased” and the Tcon velocity result is reported as “significantly increased”. Further, in the test with Tregs [1] (setting [5]), the “surface expression of Lymphocyte activation gene 3 (Lag3)” value is “significantly increased; also recorded: augmented expression” and the “surface expression of Neuropilin-1 (Nrp1)” value was “significantly increased; also recorded: augmented expression”. Moreover, the “GI homing molecule expression” value with Tregs [1] (AEB071 treatment) was “did not increase”. In addition, in the test on splenic Tregs, the “expression of Lag3” value was “augmented expression” and the “expression of Nrp1” value is “augmented expression”. For the same molecule, the “PKC-θ auto-phosphorylation at Ser676” value in test [2] (AEB071 treatment, stated by comparison with vimentin siRNA) is on record as “significantly reduced”. Also, in test [2] (setting [6]), the “Akt phosphorylation at serine 473 (mTORC2-specific site)” value is on record as “reduced”, the “Akt phosphorylation at threonine 308 (mTORC1-specific site)” value was “unaltered” and the “phosphorylation of mTORC2 target FoxO3a” value is on record as “reduced phosphorylation”. In the test on Tregs [3] (time 0-19 min), the “baseline Treg oxygen consumption rate (OCR)” value is listed as “significantly increased”. Besides, in the test with Tregs [3] (time 53-70 min), the “maximal Treg OCR” value is “significantly increased”. Also, the “Treg function after AEB071-treatment of vimentin siRNA transfected Tregs” value in the test on Tcon (AEB071 added to vimentin siRNA transfected Tregs) is reported as “did not further augment”. Besides, the “effect of AEB071 treatment under antibody blockade of Nrp1 and Lag3” value in the test with Tcon (in vitro trans-well suppression assays) is given as “reduced the effect”. The “number of proteins with significant alterations in phosphorylation sites” value in [4] (AEB071 vs DMSO treated human Tregs) is listed as 72. Besides, the “phosphorylation of adaptor molecule that links PKC-θ to vimentin (RLTPR)” value in test [4] (AEB071 vs DMSO, b140: RLTPR serine 1226, PKC-theta consensus site) is listed as “reduced phosphorylation”. Besides, the “interaction / overlap between vimentin and PKC-θ” value on PKC-θ/vimentin (AEB071-pre-treated Tregs after activation vs control) was “reduced the interaction”. Further, the PKC-θ localization entry on PKC-θ/vimentin (AEB071-pre-treated Tregs after anti-CD3/CD28 activation vs control) is on record as “dispersed throughout the cell”.

The values above are taken from patent publication US10993959B2, “Methods and compositions for increasing the suppressive function of regulatory T-cells (Tregs)” (Regents of the University of Minnesota, priority 2015, dated 2021).
